Assay [1] deals with RKO (RKOp27) human colon adenocarcinoma cells. Description: Alamar Blue cell viability assay, anti-proliferative/cytotoxic activity, RKO p27 uninduced. Type of assay: cell-based. The conditions noted are these: RKOp27, 72 h, proliferating cells, absence of the inducer Ponasterone A, 72 hours incubation. On the procedure: The anti-proliferative/cytotoxic activity of the compounds described herein, can be tested on subdlones of RKO (RKOp27) human colon adenocarcinoma cells (Schmidt et al., Oncogene 19, 2423-2429; 2000) using the Alamar Blue cell viability assay (described in O'Brien et al. Eur J Biochem 267, 5421-5426, 2000). The compounds are dissolved as 20 mM solutions in dimethylsulfoxide (DMSO) and subsequently diluted in semi-logarithmic steps. DMSO dilutions are further diluted 1:100 into Dulbecco's modified Eagle's medium (DMEM) containing 10% fetal calf serum to a final concentration twice as much as the final concentration in the test. RKO subclones are seeded into 96 well flat bottom plates at a density of 4000 cells per well in a volume of 50 µl per well. 24 hours after seeding the 50 μl each of the compound dilutions in DMEM medium are added into each well of the 96 Well plate. Each compound dilution is tested as quadruplicates. Wells containing untreated control cells are filled with 50 μl DMEM medium containing 1% DMSO. The cells are then incubated with the substances for 72 hours at 37° C. in a humidified atmosphere containing 5% carbon dioxide. To determine the viability of the cells, 10 μl of an Alamar Blue solution (Biosource) are added and the fluorescence is measured at an extinction of 544 nm and an emission of 590 nm. For the calculation of the cell viability the emission value from untreated cells is set as 100% viability and the emission rates of treated cells are set in relation to the values of untreated cells. Viabilities are expressed as % values.
The corresponding IC50 values of the compounds for anti-proliferative/cytotoxic activity are determined from the concentration-effect curves.
Representative IC50 values for anti-proliferation/cytotoxicity determined for the compounds mentioned and numbered as Examples in the examples above follow from the following table A (1st column), in which the numbers of the compound correspond to the numbers of the examples. Any or all of the compounds according to the present invention which are listed in the Table A, as well as their salts, are to be mentioned as a particular interesting subject of the present invention.
(In general: Resazurin is reduced to fluorescent resorufin, in cell work by metabolically active cells.)

Assay [2] relates to RKO colon adenocarcinoma cells (RKOp27) arrested by expression of ectopic p27Kip1. The experiment in a line: Alamar Blue cell viability assay, cell cycle specific mode of action, RKO p27 induced (arrested by Ponasterone A-induced p27Kip1). Type of assay: cell-based. The conditions noted are these: Homo sapiens, RKOp27, 72 h, cells arrested by p27Kip1 induced with 10 μM Ponasterone A, 72 hours incubation. The protocol:
To determine the cell cycle specific mode of action, subdlones of RKO colon adenocarcinoma cells (RKOp27 or RKOp21 as described by Schmidt et al. in Oncogene 19, 2423-2429; 2000) are seeded into 96 well flat bottom plates at a density of 16000 cells per well in a volume of 50 μl per well in DMEM growth medium with 10% FCS containing 10 μM Ponasterone A. 24 hours after seeding the 50 μl each of the compound dilutions in DMEM medium are added into each well of the 96 Well plate. Each compound dilution is tested as quadruplicates. Wells containing untreated control cells are filled with 50 μl DMEM medium containing 1% DMSO. The cells are then incubated with the substances for 72 hours at 37° C. in a humidified atmosphere containing 5% carbon dioxide. To determine the viability of the cells, 10 μl of an Alamar Blue solution (Biosource) are added and the fluorescence was measured at an extinction of 544 nm and an emission of 590 nm. For the calculation of the cell viability the emission value from untreated cells is set as 100% viability and the emission rates of treated cells are set in relation to the values of untreated cells. Viabilities are expressed as % values. Viability is compared of proliferating cells grown in the absence of the inducer Ponasterone A, versus viability of cells arrested by the expression of ectopic p27Kip1 induced by Ponasterone A. The data of this experimental setting are summarized in table A (2nd column).

A value given as a limit tells only on which side of the number the result lay.

On to `COC(=O)CCCC(=O)N1CCc2c(sc(NC(=O)c3ccccc3)c2C#N)C1` [Compound 38, 5-{3-Cyano-2-[(1-phenyl-methanoyl)-amino]-4,7-dihydro-5H-thieno[2,3-c]pyridin-6-yl}-5-oxo-pentanoic acid methyl ester], for which the values for the IC50 in assay [1] and in assay [2] were no more than 3 µM and greater than 60 µM, respectively.
With `N#Cc1c(NC(=O)c2ccccc2)sc2c1CCN(C(=O)CCNC(=N)N)C2` [Compound 39, N-[3-Cyano6-(3-guanidino-propanoyl)-4,5,6.7-tetrahydro-thieno[2,3-c]pyridin-2-yl]-benzamide], the IC50 (as a rule, the concentration needed to halve the response being measured) is no more than 3 µM in assay [1] and greater than 60 µM in assay [2].
Taken in the same sequence, the figures for `COCCOCC(=O)N1CCc2c(sc(NC(=O)c3ccccc3)c2C#N)C1` [Compound 40] were no more than 3 µM and greater than 60 µM.
Regarding `N#Cc1c(NC(=O)c2ccccc2)sc2c1CCN(C(=O)CCc1cccnc1)C2` [Compound 41, N-[3-Cyano-6-(3-pyridin-3-yl-propanoyl)-4,5,6,7-tetrahydro-thieno[2,3-c]pyridin-2-yl]-benzamide], the IC50 is no more than 3 µM in assay [1] and greater than 60 µM in assay [2].
As to `N#Cc1c(NC(=O)c2ccccc2)sc2c1CCN(C(=O)Cc1ccccn1)C2` [Compound 42, N-[3-Cyano-6-(2-pyridin-2-yl-ethanoyl)-4,5,7-tetrahydro-thieno[2,3-c]pyridin-2-yl]-benzamide], the IC50 in assay [1] was no more than 3 µM; in assay [2], greater than 60 µM.
Taken in the same sequence, the figures for `CCOC(=O)N1CCc2c(sc(NC(=O)c3ccc([N+](=O)[O-])cc3)c2C#N)C1` [Compound 44, 3-Cyano-2-{[1-(4-nitro-phenyl)-methanoyl]-amino}-4,7-dihydro-5H-thieno[2,3-c]pyridine-6-carboxylic acid ethyl ester] were no more than 3 µM and greater than 60 µM.
Regarding `CCOC(=O)N1CCc2c(sc(NC(=O)c3cccc([N+](=O)[O-])c3)c2C#N)C1` [Compound 45, 3-Cyano-2{[1-(3-nitro-phenyl)-methanoyl]-amino}-4,7-dihydro-5H-thieno[2,3-c]pyridine-6-carboxylic acid ethyl ester], the IC50 in assay [1] is no more than 3 µM; in assay [2] it was greater than 60 µM.
As to `CCOC(=O)N1CCc2c(sc(NC(=O)c3ccccc3[N+](=O)[O-])c2C#N)C1` [Compound 46, 3-Cyano-2-{[1-(2-nitro-phenyl)-methanoyl]-amino}-4,7-dihydro-5H-thieno[2,3-c]pyridine-6-carboxylic acid ethyl ester], the IC50 was no more than 3 µM in assay [1] and greater than 60 µM in assay [2].
Taken in the same sequence, the figures for `CCOC(=O)N1CCc2c(sc(NC(=O)c3ccc(Cl)cc3)c2C#N)C1` [Compound 47, 2-{[1-(4-Chloro-phenyl)-methanoyl]-amino}-3-cyano-4,7-dihydro-5H-thieno[2,3-c]pyridin-6-carboxylic acid ethyl ester] were no more than 3 µM and greater than 60 µM.
Taken in the same sequence, the figures for `CCOC(=O)N1CCc2c(sc(NC(=O)c3cccc(Cl)c3)c2C#N)C1` [Compound 48, 2-{[1-(3-Chloro-phenyl)-methanoyl]-amino}-3-cyano-4,7-dihydro-5H-thieno[2,3-c]pyridine-6-carboxylic acid ethyl ester] were no more than 3 µM and greater than 60 µM.
For `CCOC(=O)N1CCc2c(sc(NC(=O)c3ccc(OC)cc3)c2C#N)C1` [Compound 49, 3-Cyano-2-{[1-(4-methoxy-phenyl)-methanoyl]-amino}-4,7-dihydro-5H-thieno[2,3-c]pyridine-6-carboxylic acid ethyl ester], the IC50 in assay [1] was no more than 3 µM; in assay [2] it was greater than 60 µM.
Taken in the same sequence, the figures for `CCOC(=O)N1CCc2c(sc(NC(=O)c3ccc(C)cc3)c2C#N)C1` [Compound 50, 3-Cyano-2-[(1-p-tolyl-methanoyl)-amino]-4,7-dihydro-5H-thieno[2,3-c]pyridine-6-carboxylic acid ethyl ester] were no more than 3 µM and greater than 60 µM.
Taken in the same sequence, the figures for `CCOC(=O)N1CCc2c(sc(NC(=O)c3cccc(C)c3)c2C#N)C1` [Compound 51, 3-Cyano-2-[(1-m-tolyl-methanoyl)-amino]-4,7-dihydro-5H-thieno[2,3-c]pyridine-6-carboxylic acid ethyl ester] were no more than 3 µM and greater than 60 µM.
Taken in the same sequence, the figures for `CCOC(=O)N1CCc2c(sc(NC(=O)c3ccccc3C)c2C#N)C1` [Compound 52, 3-Cyano-2-[(1-o-tolyl-methanoyl)-amino]-4,7-dihydro-5H-thieno[2,3-c]pyridine-6-carboxylic acid ethyl ester] were no more than 3 µM and greater than 60 µM.
In the case of `CCOC(=O)N1CCc2c(sc(NC(=O)c3cccc(O)c3)c2C#N)C1` [Compound 53, 3-Cyano-2-{[1-(3-hydroxy-phenyl)-methanoyl]-amino}-4,7-dihydro-5H-thieno[2,3-c]pyridine-6-carboxylic acid ethyl ester], the IC50 in assay [1] is no more than 3 µM; in assay [2] it was greater than 60 µM.
As for `COC(=O)N1CCc2c(sc(NC(=O)c3ccccc3)c2C#N)C1` [Compound 54, 3-Cyano-2-[(1-phenyl-methanoyl)-amino]-4,7-dihydro-5H-thieno[2,3-c]pyridine-6-carboxylic acid methyl ester], the IC50 was no more than 3 µM in assay [1] and greater than 60 µM in assay [2].
Taken in the same sequence, the figures for `CC(C)COC(=O)N1CCc2c(sc(NC(=O)c3ccccc3)c2C#N)C1` [Compound 56, 3-Cyano-2-[(1-phenyl-methanoyl)-amino]-4,7-dihydro-5H-thieno[2,3-c]pyridine-6-carboxylic acid isobutyl ester] were no more than 3 µM and greater than 60 µM.
Taken in the same sequence, the figures for `CCCCCCOC(=O)N1CCc2c(sc(NC(=O)c3ccccc3)c2C#N)C1` [Compound 57, 3-Cyano-2-[(1-phenyl-methanoyl)-amino]-4,7-dihydro-5H-thieno[2,3-c]pyridine-6-carboxylic acid hexyl ester] were no more than 3 µM and greater than 60 µM.
Take `CCCCOC(=O)N1CCc2c(sc(NC(=O)c3ccccc3)c2C#N)C1` [Compound 58, 3-Cyano-2-[(1-phenyl-methanoyl)-amino]-4,7-dihydro-5H-thieno[2,3-c]pyridine-6-carboxylic acid butyl ester]: the IC50 in assay [1] is no more than 3 µM; in assay [2], greater than 60 µM.
Taken in the same sequence, the figures for `N#Cc1c(NC(=O)c2ccccc2)sc2c1CCN(C(=O)Oc1ccccc1)C2` [Compound 59, 3-Cyano-2-[(1-phenyl-methanoyl)-amino]-4,7-dihydro-5H-thieno[2,3-c]pyridine-6-carboxylic acid phenyl ester] were no more than 3 µM and greater than 60 µM.
`COc1ccc(OC(=O)N2CCc3c(sc(NC(=O)c4ccccc4)c3C#N)C2)cc1` [Compound 60, 3-Cyano-2-[(1-phenyl-methanoyl)-amino]-4,7-dihydro-5H-thieno[2,3-c]pyridine-6-carboxylic acid 4-methoxy-phenyl ester]: the IC50 in assay [1] was no more than 3 µM; in assay [2] it was greater than 60 µM.
Taken in the same sequence, the figures for `N#Cc1c(NC(=O)c2ccccc2)sc2c1CCN(C(=O)OCc1ccccc1)C2` [Compound 61, 3-Cyano-2-[(1-phenyl-methanoyl)-amino]-4,7-dihydro-5H-thieno[2,3-c]pyridine-6-carboxylic acid benzyl ester] were no more than 3 µM and greater than 60 µM.
Turning to `N#Cc1c(NC(=O)c2ccccc2)sc2c1CCN(C(=O)OCc1ccccn1)C2` [Compound 62, 3-Cyano-2-[(1-phenyl-methanoyl)-amino]-4,7-dihydro-5H-thieno[2,3-c]pyridine-6-carboxylic acid pyridin-2-ylmethyl ester], the values for the IC50 in assay [1] and in assay [2] were no more than 3 µM and greater than 60 µM, respectively.

Values taken from patent US7714134B2, “Compounds and use of tetrahydropyridothiophenes” (4SC AG, priority 2004, dated 2010).
